Experimental data taken from BindingDB's records for patent US20260069571 (Redx Pharma, 2026).

Key:
[1] = target: Epithelial discoidin domain-containing receptor 1 (Homo sapiens, UniProt Q08345); experiment: DDR1 and DDR2 Biochemical Assay
Protocol: (§1) The capacity of compounds to bind to DDR1 and DDR2 was quantified using a LanthaScreen Eu Kinase Binding Assay. Recombinant human DDR1 (2.5 nM; aa440-876 containing a GST tag) and DDR2 (1.75 nM; aa427-855 containing a GST tag) were diluted in assay buffer (50 mM HEPES pH7.3, 10 mM MgCl2, 1 mM EGTA and 0.01% Tween) with various concentrations of compound in a 384-well plate and a volume of 5 uL. After a 30-minute incubation at room temperature, 2.5 uL of Eu-anti GST antibody (diluted to 1 nM in assay buffer) plus Kinase Tracer 178 (diluted in assay buffer to 5 nM for DDR1 and 10 nM for DDR2) were added to the plate. Following 60-minute incubation at room temperature, time-resolved fluorescence was measured on a BMG Labtech PHERAstar plate reader. DMSO (1%) and reference compound (1 μM) were used to generate the Max and Min assay signals, respectively. Data was analysed using a four-parameter logistic model to calculate IC50 values, with at least two independent replicates were performed for each compound.

[2] = target: T1, Discoidin domain-containing receptor 2 (Homo sapiens, UniProt Q16832); experiment: DDR1 and DDR2 Biochemical Assay
T1 sequence (Q16832 whole entry): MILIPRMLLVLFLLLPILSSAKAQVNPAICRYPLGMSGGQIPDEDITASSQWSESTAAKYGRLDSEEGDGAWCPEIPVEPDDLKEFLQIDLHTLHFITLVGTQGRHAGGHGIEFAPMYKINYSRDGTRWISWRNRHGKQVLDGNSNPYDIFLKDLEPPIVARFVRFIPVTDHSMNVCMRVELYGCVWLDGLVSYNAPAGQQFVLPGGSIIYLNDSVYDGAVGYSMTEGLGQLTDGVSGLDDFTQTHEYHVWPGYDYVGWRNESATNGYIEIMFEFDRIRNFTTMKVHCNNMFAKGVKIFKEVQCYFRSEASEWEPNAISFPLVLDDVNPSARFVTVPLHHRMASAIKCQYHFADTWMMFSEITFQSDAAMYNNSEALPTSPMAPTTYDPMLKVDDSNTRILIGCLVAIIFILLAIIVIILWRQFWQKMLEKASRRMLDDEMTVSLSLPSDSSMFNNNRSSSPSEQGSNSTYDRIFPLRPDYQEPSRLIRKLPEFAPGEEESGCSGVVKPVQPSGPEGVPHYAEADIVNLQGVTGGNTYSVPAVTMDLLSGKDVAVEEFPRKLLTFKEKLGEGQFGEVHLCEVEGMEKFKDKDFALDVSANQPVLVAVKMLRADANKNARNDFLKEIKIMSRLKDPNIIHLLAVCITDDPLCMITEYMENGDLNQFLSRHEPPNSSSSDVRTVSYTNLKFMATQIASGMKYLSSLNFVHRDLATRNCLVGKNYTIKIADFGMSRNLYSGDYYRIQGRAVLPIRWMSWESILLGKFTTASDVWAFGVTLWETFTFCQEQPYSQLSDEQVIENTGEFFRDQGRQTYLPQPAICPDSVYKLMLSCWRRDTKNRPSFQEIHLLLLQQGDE
Protocol: as §1

Chain of Epithelial discoidin domain-containing receptor 1 (Q08345 whole entry, the tested form may be a part): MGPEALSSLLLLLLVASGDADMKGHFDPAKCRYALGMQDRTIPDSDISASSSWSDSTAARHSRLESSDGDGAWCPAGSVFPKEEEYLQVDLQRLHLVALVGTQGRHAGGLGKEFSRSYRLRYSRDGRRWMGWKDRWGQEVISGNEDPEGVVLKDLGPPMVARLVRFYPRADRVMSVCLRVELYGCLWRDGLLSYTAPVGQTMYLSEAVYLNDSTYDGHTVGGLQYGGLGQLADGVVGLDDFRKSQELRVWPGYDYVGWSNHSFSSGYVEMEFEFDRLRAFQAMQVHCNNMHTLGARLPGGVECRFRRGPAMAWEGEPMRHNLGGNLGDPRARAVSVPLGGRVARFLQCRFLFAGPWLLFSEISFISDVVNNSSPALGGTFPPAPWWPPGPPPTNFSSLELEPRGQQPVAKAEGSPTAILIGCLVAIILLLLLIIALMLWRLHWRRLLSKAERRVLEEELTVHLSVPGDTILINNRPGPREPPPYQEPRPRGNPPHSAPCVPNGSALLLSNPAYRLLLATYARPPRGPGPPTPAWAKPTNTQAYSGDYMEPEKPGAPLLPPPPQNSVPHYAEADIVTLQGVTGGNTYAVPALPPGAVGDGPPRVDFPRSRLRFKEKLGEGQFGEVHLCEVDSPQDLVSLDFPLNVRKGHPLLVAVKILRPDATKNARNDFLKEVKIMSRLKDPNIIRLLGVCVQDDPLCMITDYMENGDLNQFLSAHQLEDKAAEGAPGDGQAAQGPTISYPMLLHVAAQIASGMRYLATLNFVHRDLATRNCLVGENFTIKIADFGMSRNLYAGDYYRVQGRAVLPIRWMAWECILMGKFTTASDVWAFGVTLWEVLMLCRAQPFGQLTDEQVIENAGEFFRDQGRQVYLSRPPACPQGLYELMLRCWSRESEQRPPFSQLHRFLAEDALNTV

IC50 [1] [nM] | IC50 [2] [nM] | SMILES
< 10 | – | Cn1ncc2cc(Nc3cccc4c3C(=O)N(CC(=O)N3CCCC(C(F)(F)F)C3)C4)ccc21 (stereo not drawn) [US20260069571, Example 12]
< 10 | < 10 | Cc1n[nH]c2cc(Nc3cccc4c3C(=O)N(CC(=O)NCC(F)(F)F)C4)ccc12 [US20260069571, Example 6]
